Results reported in ChEMBL document CHEMBL1129420 (J Med Chem, 1996).

Test: Concentration for hnps- Phospholipase A2 was evaluated using radioligand [3H]arachidonate binding assay in Escherichia coli membranes
Format: cell membranes

In the case of CCCCCCCCOCC(COP(=O)(O)OCCN)OP(=O)(O)CCCCCCC (stereo unspecified), the IC50 is reported as 0.2 µM.
